Measurements published in EP0354818A2, “Pharmaceutical compositions containing polyaromatic compounds as active ingredient and their use” (HADASSAH MEDICAL ORGANIZATION, priority 1988, dated 1990).
Each block holds one compound with its values, some of them ahead of it.

Legend:
fresh human blood = assay: Anticoagulant effect: partial thromboplastin time (PTT) in blood samples; conditions: citrated human blood, after addition of Ca++, control 30.5
Method: 0.25 ml of the indicated concentration of the drug (x10, diluted in saline) were added to 2.25 ml of fresh human blood, collected in the presence of citrate. PTT was measured following the addition of Ca⁺⁺.

LPL = target: T1, LPL (Rattus norvegicus, UniProt Q06000); assay: Plasma levels of LPL after oral administration to rats; type: in vivo; conditions: 1ml of 10%-20% solution
T1 construct: from tissue; host or cells: rat plasma (in vivo, after oral aluminon)
T1 sequence (Q06000 28-474): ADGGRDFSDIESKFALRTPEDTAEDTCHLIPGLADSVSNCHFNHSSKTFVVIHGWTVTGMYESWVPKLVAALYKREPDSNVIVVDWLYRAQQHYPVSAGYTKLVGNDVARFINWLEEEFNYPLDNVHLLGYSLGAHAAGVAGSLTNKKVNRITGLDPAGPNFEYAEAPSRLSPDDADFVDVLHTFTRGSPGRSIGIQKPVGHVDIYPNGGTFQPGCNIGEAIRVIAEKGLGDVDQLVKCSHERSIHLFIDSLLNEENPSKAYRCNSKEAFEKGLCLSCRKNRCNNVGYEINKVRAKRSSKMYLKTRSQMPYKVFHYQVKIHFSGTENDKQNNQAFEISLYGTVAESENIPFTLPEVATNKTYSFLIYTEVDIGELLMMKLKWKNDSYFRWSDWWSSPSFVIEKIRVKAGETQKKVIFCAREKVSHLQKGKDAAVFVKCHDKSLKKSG
Excerpt: Moreover, since aluminon can be absorbed through the gastrointestinal tract, it can be used as an orally administrable anticoagulant (as opposed to heparin which has to be given by injection).

[1] = target: T2, ESb mouse lymphoma heparanase (Mus musculus, UniProt Q6YGZ1); assay: Inhibition of heparanase degradation of 35S labelled ECM; type: biochemical; conditions: compound 10 µgr/ml, 24 hrs incubation; for Total low-mol-wt. HS fragments released by heparanase (cpm): control 17,756 cpm
T2 construct: endogenous in cells; host or cells: ESb mouse lymphoma cells
T2 sequence (Q6YGZ1 150-535 limits assumed): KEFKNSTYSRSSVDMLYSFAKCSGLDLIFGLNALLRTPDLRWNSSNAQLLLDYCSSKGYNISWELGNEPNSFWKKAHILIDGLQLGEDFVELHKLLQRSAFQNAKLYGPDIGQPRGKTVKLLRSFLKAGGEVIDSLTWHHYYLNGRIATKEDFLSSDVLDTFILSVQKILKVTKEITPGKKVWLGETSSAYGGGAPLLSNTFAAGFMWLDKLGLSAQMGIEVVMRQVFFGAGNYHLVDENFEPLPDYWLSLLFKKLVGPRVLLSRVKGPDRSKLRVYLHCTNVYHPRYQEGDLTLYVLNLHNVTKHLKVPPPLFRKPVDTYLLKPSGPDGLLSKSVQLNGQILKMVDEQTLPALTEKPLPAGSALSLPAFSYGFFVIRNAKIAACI
T2 sequence (Q6YGZ1 28-101 limits assumed): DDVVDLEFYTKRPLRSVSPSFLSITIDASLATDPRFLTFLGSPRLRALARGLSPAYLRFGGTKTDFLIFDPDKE
Method: The ability of several of the above mentioned compounds to inhibit lymphoma-cell derived heparanase was tested in the assay system described by Vlodavsky et. al. (Cancer Research. 43: 2704-2711 (1983). ³⁵S labelled ECM was incubated for 24 hrs with ESb mouse lymphoma heparanase in the presence of 10 ugr ml of the indicated compounds. Degradation of the sulfated glycosaminoglycan was followed by gel filtration of the supernatants. Heparanase activity is expressed as the total amount of labelled low-molecular-weight fragments released from the ECM substrate. The results are summarized in Table III.

lipoprotein lipase (LPL) = target: T3, lipoprotein lipase (LPL) (Rattus norvegicus, UniProt Q06000); assay: LPL activity in cultured heart cells and medium; type: cell-based; conditions: 24 hrs incubation of heart cells; for LPL activity: total: cells plus medium; for % increase in the total: versus 0 M
T3 construct: endogenous in cells; host or cells: F1 heart cell cultures from newborn rat hearts (mainly non-beating mesenchymal cells)
T3 sequence (Q06000 28-474): T1 sequence (Q06000 28-474)
Method: F₁ heart cell cultures were prepared from newborn rat hearts as previously described (Chajek, T. et al, Biochem. Biophys. Acta 528, 456-474(1978)). They consisted mainly of non-beating mesenchymal cells and were used 8-12 days after their isolation.
The enzyme activity was determined on aliquots of medium and of homogenates of cells which had been released from the petri dish with a rubber policeman in 1 ml of 0.025 M NH₃/NH₄C1 buffer (pH 8.1) containing 1 unit/ml of heparin. The assay system consisted of 0.1 ml of medium or 0.1 ml of cell homogenate ([…]) and 0.1 ml of substrate containing labeled triolein, prepared according to the method of Nilsson-Ehle and Schotz, (J. Lipid Res. 17, 536-541 (1976)). Incubations were carried out at 37°C for 45 min. The reaction was stopped by the addition of methanol/chloroform/heptane (1,4:1.25:1, v/v) and the extraction of fatty acids was performed according to the method of Belfrage and Vaughan (J. Lipid Res. 10, 341-344 (1969), as modified by Nilsson-Ehle and Schotz. Enzyme activity was calculated according to the formula of Nilsson-Ehle and Schotz.

SMILES: O=C(O)C1=CC(=C(c2ccc(O)c(C(=O)O)c2)c2ccc(O)c(C(=O)O)c2)C=CC1=O [Aluminon]
PTT (fresh human blood; Aluminon final conc. 0.01 mg/ml): 30.5 s | PTT (fresh human blood; Aluminon final conc. 0.1 mg/ml): 190 s | PTT (fresh human blood; Aluminon final conc. 1 mg/ml): >300 s | plasma levels of LPL (LPL): elevated by about an order of magnitude | Total low-mol-wt. HS fragments released by heparanase (cpm) [1]: 3,822 cpm

% Inhibition [1]: 32%
SMILES: CCN(Cc1cccc(S(=O)(=O)O)c1)c1ccc(C(=C2C=CC(=[N+](CC)Cc3cccc(S(=O)(=O)O)c3)C=C2)c2ccc(O)cc2S(=O)(=O)[O-])cc1 [Fast Green]

SMILES: O=S(=O)(O)c1ccc(N=C2C=CC(=C(c3ccc(Nc4ccc(S(=O)(=O)O)cc4)cc3)c3ccc(Nc4ccc(S(=O)(=O)O)cc4)cc3)C=C2)cc1 [Methyl Blue]
% Inhibition [1]: 23% | Total low-mol-wt. HS fragments released by heparanase (cpm) [1]: 13,676 cpm

LPL activity: total (lipoprotein lipase (LPL); Evan's Blue 10⁻³ M): 7749 m mole FFA/h/dish | % increase in the total (lipoprotein lipase (LPL); Evan's Blue 10⁻³ M): +139.4% | LPL activity: total (lipoprotein lipase (LPL); Evan's Blue 10⁻⁴ M): 5230 m mole FFA/h/dish | % increase in the total (lipoprotein lipase (LPL); Evan's Blue 10⁻⁴ M): +61.6% | LPL activity: total (lipoprotein lipase (LPL); Evan's Blue 10⁻⁵ M): 4288 m mole FFA/h/dish | % increase in the total (lipoprotein lipase (LPL); Evan's Blue 10⁻⁵ M): +32.5% | Total low-mol-wt. HS fragments released by heparanase (cpm) [1]: 6,986 cpm
SMILES: Cc1cc(-c2ccc(/N=N/c3ccc4c(S(=O)(=O)O)cc(S(=O)(=O)O)c(N)c4c3O)c(C)c2)ccc1/N=N/c1ccc2c(S(=O)(=O)O)cc(S(=O)(=O)O)c(N)c2c1O [Evan's Blue]
